Legend:
PSMA = PSMA (Homo sapiens, UniProt Q04609); assay: PSMA inhibition (IC50, mode of inhibition); format: biochemical
tumor = assay: Uptake over time in the fraction associated with the tumor; settings: in vivo
Source text: Following administration of the chelated PSMA inhibitors herein, the imaging time may be altered to alter and/or optimize imaging characteristics.

[1] = Acid and base stability noted in preliminary labeling and deprotection studies; format: physicochemical; settings: serine-based scaffold; beta-elimination under base, P—N bond labile to acid
Source text: The instability of CTT54 and its protected precursors under basic conditions is due to beta-elimination on serine to yield a dehydroalanine derivative. The acid instability was centered on the P—N bond of CTT54, which precluded the use of acid modifiers in HPLC mobile phases. […] The homoserine analog was known initially as hCTT54 and later, more formally, as CTT1000. The 2(3-hydroxypropyl)glycine is known as TG97 and CTT2000. The base stability was expected as the beta-elimination problem associated with phosphorylated serine residue would be blocked. However, the acid stability was unexpected.

Sequence of PSMA (Q04609 whole entry): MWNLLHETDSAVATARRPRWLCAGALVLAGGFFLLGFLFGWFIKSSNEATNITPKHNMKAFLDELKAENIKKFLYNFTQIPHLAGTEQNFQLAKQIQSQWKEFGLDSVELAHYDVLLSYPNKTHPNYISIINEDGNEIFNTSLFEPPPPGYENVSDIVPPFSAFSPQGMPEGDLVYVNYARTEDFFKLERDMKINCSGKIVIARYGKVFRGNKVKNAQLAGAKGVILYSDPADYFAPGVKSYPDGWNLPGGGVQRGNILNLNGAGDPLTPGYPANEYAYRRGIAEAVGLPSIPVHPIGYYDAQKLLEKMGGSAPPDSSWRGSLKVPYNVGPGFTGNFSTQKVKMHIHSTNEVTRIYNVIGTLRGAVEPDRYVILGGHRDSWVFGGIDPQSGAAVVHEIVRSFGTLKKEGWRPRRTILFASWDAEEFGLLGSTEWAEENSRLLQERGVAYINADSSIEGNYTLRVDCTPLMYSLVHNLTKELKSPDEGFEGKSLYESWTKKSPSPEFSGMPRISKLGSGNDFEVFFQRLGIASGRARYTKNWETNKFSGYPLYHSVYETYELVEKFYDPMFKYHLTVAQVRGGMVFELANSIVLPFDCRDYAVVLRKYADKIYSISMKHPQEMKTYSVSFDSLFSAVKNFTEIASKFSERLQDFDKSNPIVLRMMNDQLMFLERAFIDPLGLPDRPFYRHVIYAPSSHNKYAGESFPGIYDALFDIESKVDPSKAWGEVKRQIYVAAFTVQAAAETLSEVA

Row | IC50 (PSMA) [µM] | uptake in the fraction associated with the tumor over time (tumor) | SMILES | acid and base stability [1]
1 | 0.015 | – | N[C@@H](CCC(=O)N[C@@H](CCOP(=O)(O)N[C@@H](CCC(=O)O)C(=O)O)C(=O)O)C(=O)O [CTT1000] | –
2 | – | continues to increase over time | N[C@@H](CCC(=O)N[C@@H](COP(=O)(O)N[C@@H](CCC(=O)O)C(=O)O)C(=O)O)C(=O)O [CTT-54, L-[…]- glutamyl-O-[{[(1S)-1,3-dicarboxy-propyl]amino} (hydroxy)phosphoryl]-L-serine] | acid and base stability issues were noted
